In paper PMC7997640, “Potential anti-COVID-19 agents, cepharanthine and nelfinavir, and their usage for combination treatment” (iScience, 2021):
Where two headings read alike, the source gives them in different places.

What was measured:
[1] = system: SARS-CoV-2; test: microbe, parasite or virus in culture; conditions: for IC90: read-out: SARS-CoV-2 RNA IC90
[2] = system: SARS-CoV-2; test: Virus-cell binding assay at 4°C; assay type: cell-based
[3] = system: SARS-CoV-2; assay type: cell-based; conditions: VeroE6/TMPRSS2, 48 hr
[4] = system: SARS-CoV-2
[5] = in vitro; conditions: African green monkey
[6] = system: SARS-CoV-2; assay type: cell-based
[7] = system: SARS-CoV-2; assay type: cell-based; remark: listed apart in the source
[8] = system: SARS-CoV-2; test: Chemical screening of 306 approved drugs by cytopathic effect assay; assay type: cell-based
[9] = patients, 500 mg NFV orally; ref Markowitz et al., 1998; read-out: serum Cmax; cited from earlier work
[10] = expected in human lung
[11] = system: SARS-CoV-2; test: Viral N protein immunofluorescence in Calu-3 cells; assay type: cell-based
[12] = system: SARS-CoV; conditions: ref Liu et al., 2005, Wu et al., 2004, Yamamoto et al.; cited from earlier work
[13] = clinical; conditions: human, po, 500 mg
[14] = system: SARS-CoV-2; test: microbe, parasite or virus in culture; assay type: cell-based
[15] = biological target: SARS-CoV-2 main protease (Severe acute respiratory syndrome coronavirus 2, UniProt P0DTD1); test: biochemical
[16] = Severe acute respiratory syndrome coronavirus 2, VeroE6/TMPRSS2, 24 h, read-out: SARS-CoV-2 RNA IC50
[17] = Severe acute respiratory syndrome coronavirus 2, VeroE6/TMPRSS2, 24 h
[18] = Severe acute respiratory syndrome coronavirus 2, read-out: IC50 (Hill function fit)
[19] = Table S1, Single-drug treatment
[20] = secreted viral RNA 24 hr, RDV 15 μM, CLQ 15 μM, CEP 8.2 μM, NFV 4 μM
[21] = VeroE6/TMPRSS2, 24 hr, LPV 16 μM, CLQ 16 μM, RDV 20 μM, CEP 8 μM, NFV 4 μM

Work on `CCN(CC)CCCC(C)Nc1ccnc2cc(Cl)ccc12` (stereo not drawn) [CLQ, chloroquine] yielded an IC50 [1, 16] of 1.31 µM, an IC90 [1, 17] of 3.97 µM and an IC50 [1, 18] of 1.31 µM. The “SARS-CoV-2 binding to cells (cell-bound viral RNA)” value [2] was “negligible effect”, the virus-induced cytopathicity [3] was “reduced virus-induced cytopathicity” and the “antiviral activity on viral RNA” value [4] was “inhibited viral RNA”. For the same compound, the “m, slope of the dose-response curve (Hill coefficient)” value (“m, slope of the dose-response curve” for short) [4, 19] was 1.984, the CC50 [5] was greater than 64 µM and the “step of life cycle inhibited (time-of-addition)” value (from here on “step of life cycle inhibited”) [6, 20] was “activity in the early stages of infection”. For the same compound, the N protein expression [7, 21] was “significantly reduced N protein expression”.
For `Cc1cccc(C)c1OCC(=O)N[C@@H](Cc1ccccc1)[C@@H](O)C[C@H](Cc1ccccc1)NC(=O)[C@H](C(C)C)N1CCCNC1=O` [LPV, lopinavir], the IC50 [1, 16] was 3.07 µM, the IC90 [1, 17] was 5.43 µM and the IC50 [1, 18] was 3.61 µM. The virus-induced cytopathicity [3] was “reduced virus-induced cytopathicity”, the “antiviral activity on viral RNA” value [4] was “inhibited viral RNA” and the “m, slope of the dose-response curve” value [4, 19] was 3.852. For the same compound, the CC50 [5] was 54.9 µM, the N protein expression [7, 21] was “significantly reduced N protein expression” and the “screening outcome (hit = cell survival more than 20-fold of the control)” value [8] was “identified as hits”.
For `CO[C@H]1C[C@@H]2CC[C@@H](C)[C@@](O)(O2)C(=O)C(=O)N2CCCC[C@H]2C(=O)O[C@H]([C@H](C)C[C@@H]2CC[C@@H](O)[C@H](OC)C2)CC(=O)[C@H](C)/C=C(\C)[C@@H](O)[C@@H](OC)C(=O)[C@H](C)C[C@H](C)/C=C/C=C/C=C/1C` [Rapamycin], the “screening outcome (hit = cell survival more than 20-fold of the control)” value [8] was “identified as hits”.
For `Cc1c(O)cccc1C(=O)N[C@@H](CSc1ccccc1)[C@H](O)CN1C[C@H]2CCCC[C@H]2C[C@H]1C(=O)NC(C)(C)C` [NFV, nelfinavir], the IC50 [1, 16] was 0.77 µM, the IC90 [1, 17] was 1.18 µM and the IC50 [1, 18] was 0.765 µM. The Cmax [9] was 6.9 µM, the virus-induced cytopathicity [3] was “greatest anti-cytopathic activity” and the “viral RNA levels, % of the untreated control infections” value [4] was 0.001–0.01%. For the same compound, the “window (CC50/IC50)” value [4] was greater than 70 fold, the “m, slope of the dose-response curve” value [4, 19] was 5.079 and the CC50 [5] was greater than 64 µM. The “step of life cycle inhibited” value [6, 20] was “clearly inhibited the post-entry process”, the Degradation rate k [10] was 4.89 day⁻¹ and the “SARS-CoV-2 proliferation in Calu-3 cells (N protein)” value [11] was “inhibit SARS-CoV-2 proliferation”. The “replication of SARS-CoV” value [12] was “inhibit the replication”, the Cmax [13] was 9.32 µM and the IC50 [14, 18] was 1.32 µM. For the same compound, the “m, slope of the dose-response curve” value ([14]; Table S1, Combination treatment experiment) was 4.043, the “viral RNA, % of untreated control” value ([14]; […], CEP 3.20 μM, NFV 2.24 μM, alone or combined) was 5.8% and the N protein expression [7, 21] was “significantly reduced N protein expression”. The “screening outcome (hit = cell survival more than 20-fold of the control)” value [8] was “identified as hits” and the IC50 [15] was 37 µM.
In the case of `NC(=O)c1nc(F)c[nH]c1=O` [FPV, favipiravir], the IC50 [1, 16] is reported as greater than 64 µM, the IC90 [1, 17] is reported as greater than 64 µM and the “antiviral activity on viral RNA” value [4] is reported as “negligible antiviral activity”. For the same compound, the CC50 [5] was greater than 64 µM.
In the case of heparin, the “SARS-CoV-2 binding to cells (cell-bound viral RNA)” value [2] is reported as “significantly blocked SARS-CoV-2 particle attachment”.
Work on `CCC(CC)COC(=O)[C@H](C)N[P@](=O)(OC[C@H]1O[C@@](C#N)(c2ccc3c(N)ncnn23)[C@H](O)[C@@H]1O)Oc1ccccc1` [RDV, Remdesivir] yielded an IC50 [1, 16] of 1.58 µM, an IC90 [1, 17] of 3.24 µM and an IC50 [1, 18] of 1.58 µM. The “antiviral activity on viral RNA” value [4] was “inhibited viral RNA”, the “m, slope of the dose-response curve” value [4] was 3.048 and the CC50 [5] was greater than 64 µM. For the same compound, the “step of life cycle inhibited” value [6] was “negligible effect on virus entry” and the N protein expression [7] was “significantly reduced N protein expression”.
With `CCOC(=O)O[C@]1(C(=O)OCCl)CC[C@H]2[C@@H]3CCC4=CC(=O)C=C[C@]4(C)[C@H]3[C@@H](O)C[C@@]21C` [Loteprednol] the “screening outcome (hit = cell survival more than 20-fold of the control)” value [8] was “identified as hits”.
